Measurements reported in ChEMBL document CHEMBL1201861, “Genomics of Drug Sensitity in Cancer screening data, Wellcome Trust Sanger Institute”.

Assays:
CP50-MEL-B = test: cells; format: functional, cell-based; conditions: Homo sapiens;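 further: growth inhibition of the human cell line, measured with a cell viability read-out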
Description: SANGER: Inhibition of human CP50-MEL-B cell growth in a cell viability assay.

MKN-45 = test: cells; format: functional, cell-based; conditions: Homo sapiens;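 further: growth inhibition of human MKN-45 cells, measured with a cell viability assay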
Description: SANGER: Inhibition of human MKN45 cell growth in a cell viability assay.

RT-112 = test: cells; format: functional, cell-based; conditions: Homo sapiens
Description: SANGER: Inhibition of human RT-112 cell growth in a cell viability assay.

MKN-1 = test: cells; format: functional, cell-based; conditions: Homo sapiens;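 further: growth inhibition of human MKN1 cells, read out by a cell viability measurement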
Description: SANGER: Inhibition of human MKN1 cell growth in a cell viability assay.

NCI-H630 = test: cells; format: functional, cell-based; conditions: Homo sapiens;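 further: growth inhibition of NCI-H630 cells, read out with a cell viability assay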
Description: SANGER: Inhibition of human NCI-H630 cell growth in a cell viability assay.

CAL-120 = test: cells; format: functional, cell-based; conditions: Homo sapiens;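 further: cell growth inhibition, read out as cell viability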
Description: SANGER: Inhibition of human CAL-120 cell growth in a cell viability assay.

HCC1395 = test: cells; format: functional, cell-based; conditions: Homo sapiens;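 further: growth inhibition of HCC1395 cells, read out by a cell viability assay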
Description: SANGER: Inhibition of human HCC1395 cell growth in a cell viability assay.

NCI-H1651 = test: cells; format: functional, cell-based; conditions: Homo sapiens;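 further: Read-out is a cell viability assay, with IC50 expressing inhibition of NCI-H1651 cell growth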
Description: SANGER: Inhibition of human NCI-H1651 cell growth in a cell viability assay.

BFTC-909 = test: cells; format: functional, cell-based; conditions: Homo sapiens
Description: SANGER: Inhibition of human BFTC-909 cell growth in a cell viability assay.

ASPC1 = test: cells; format: functional, cell-based; conditions: Homo sapiens;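 further: growth inhibition of AsPC-1 cells, read out with a cell viability assay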
Description: SANGER: Inhibition of human AsPC-1 cell growth in a cell viability assay.

CAL-62 = test: cells; format: functional, cell-based; conditions: Homo sapiens;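 further: growth inhibition of CAL-62 cells, read out with a cell viability assay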
Description: SANGER: Inhibition of human CAL-62 cell growth in a cell viability assay.

NY = test: cells; format: functional, cell-based; conditions: Homo sapiens
Description: SANGER: Inhibition of human NY cell growth in a cell viability assay.

SiHa = test: cells; format: functional, cell-based; conditions: Homo sapiens;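 further: Viability-based readout of growth inhibition in SiHa cells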
Description: SANGER: Inhibition of human SiHa cell growth in a cell viability assay.

NCI-H2170 = test: cells; format: functional, cell-based; conditions: Homo sapiens;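 further: cell viability assay measuring growth inhibition of human NCI-H2170 cancer cells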
Description: SANGER: Inhibition of human NCI-H2170 cell growth in a cell viability assay.

MDA-MB-157 = test: cells; format: functional, cell-based; conditions: Homo sapiens
Description: SANGER: Inhibition of human MDA-MB-157 cell growth in a cell viability assay.

NB12 = test: cells; format: functional, cell-based; conditions: Homo sapiens;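 further: growth inhibition of human NB12 cells, read out by a cell viability assay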
Description: SANGER: Inhibition of human NB12 cell growth in a cell viability assay.

S-117 = test: cells; format: functional, cell-based; conditions: Homo sapiens
Description: SANGER: Inhibition of human S-117 cell growth in a cell viability assay.

SW1088 = test: cells; format: functional, cell-based; conditions: Homo sapiens;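 further: growth inhibition of human SW1088 cells, read out by a cell viability assay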
Description: SANGER: Inhibition of human SW1088 cell growth in a cell viability assay.

CAL-54 = test: cells; format: functional, cell-based; conditions: Homo sapiens;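 further: growth inhibition of CAL-54 cells, read out by a viability measurement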
Description: SANGER: Inhibition of human CAL-54 cell growth in a cell viability assay.

NCI-H1793 = test: cells; format: functional, cell-based; conditions: Homo sapiens;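 further: cell growth inhibition, read out by a cell viability assay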
Description: SANGER: Inhibition of human NCI-H1793 cell growth in a cell viability assay.

G-401 = test: cells; format: functional, cell-based; conditions: Homo sapiens
Description: SANGER: Inhibition of human G-401 cell growth in a cell viability assay.

PANC-03-27 = test: cells; format: functional, cell-based; conditions: Homo sapiens
Description: SANGER: Inhibition of human PANC-03-27 cell growth in a cell viability assay.

NCI-H650 = test: cells; format: functional, cell-based; conditions: Homo sapiens;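 further: growth inhibition of NCI-H650 cells, read out by a viability assay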
Description: SANGER: Inhibition of human NCI-H650 cell growth in a cell viability assay.

COLO-680N = test: cells; format: functional, cell-based; conditions: Homo sapiens;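 further: cell viability assay used to measure inhibition of COLO-680N cell growth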
Description: SANGER: Inhibition of human COLO-680N cell growth in a cell viability assay.

AN3-CA = test: cells; format: functional, cell-based; conditions: Homo sapiens;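 further: growth inhibition of human AN3-CA cells measured by a cell viability assay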
Description: SANGER: Inhibition of human AN3-CA cell growth in a cell viability assay.

IGROV-1 = test: cells; format: functional, cell-based; conditions: Homo sapiens;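 further: reduction of IGROV-1 cell growth, read out with a viability assay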
Description: SANGER: Inhibition of human IGROV-1 cell growth in a cell viability assay.

ChaGo-K-1 = test: cells; format: functional, cell-based; conditions: Homo sapiens;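 further: growth inhibition of ChaGo-K-1 cells, read out with a cell viability assay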
Description: SANGER: Inhibition of human ChaGo-K-1 cell growth in a cell viability assay.

RO82-W-1 = test: cells; format: functional, cell-based; conditions: Homo sapiens;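 further: growth inhibition of human RO82-W-1 cells, measured with a cell viability assay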
Description: SANGER: Inhibition of human RO82-W-1 cell growth in a cell viability assay.

SNU-387 = test: cells; format: functional, cell-based; conditions: Homo sapiens
Description: SANGER: Inhibition of human SNU-387 cell growth in a cell viability assay.

NCI-H2052 = test: cells; format: functional, cell-based; conditions: Homo sapiens;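 further: growth inhibition of NCI-H2052 cells, read out with a cell viability assay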
Description: SANGER: Inhibition of human NCI-H2052 cell growth in a cell viability assay.

HCC1937 = test: cells; format: functional, cell-based; conditions: Homo sapiens;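 further: growth inhibition measured with a cell viability read-out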
Description: SANGER: Inhibition of human HCC1937 cell growth in a cell viability assay.

SW1463 = test: cells; format: functional, cell-based; conditions: Homo sapiens;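 further: growth inhibition of SW1463 cells, determined with a cell viability assay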
Description: SANGER: Inhibition of human SW1463 cell growth in a cell viability assay.

NCI-H1993 = test: cells; format: functional, cell-based; conditions: Homo sapiens;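 further: growth inhibition of the cancer cell line, assessed with a cell viability assay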
Description: SANGER: Inhibition of human NCI-H1993 cell growth in a cell viability assay.

U2OS = test: cells; format: functional, cell-based, U-2-OS; conditions: Homo sapiens;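 further: growth inhibition of human U-2-OS cells, determined with a cell viability assay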
Description: SANGER: Inhibition of human U-2-OS cell growth in a cell viability assay.

DoTc2-4510 = test: cells; format: functional, cell-based; conditions: Homo sapiens
M059J = test: cells; format: functional, cell-based; conditions: Homo sapiens;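 further: growth inhibition of M059J cells, read out with a cell viability assay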
Description: SANGER: Inhibition of human M059J cell growth in a cell viability assay.

NCI-H810 = test: cells; format: functional, cell-based; conditions: Homo sapiens;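 further: IC50 reflects inhibition of cancer cell line growth, read out with a cell viability assay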
Description: SANGER: Inhibition of human NCI-H810 cell growth in a cell viability assay.

HCC1806 = test: cells; format: functional, cell-based; conditions: Homo sapiens;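 further: growth inhibition of the cancer cell line, determined with a cell viability assay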
Description: SANGER: Inhibition of human HCC1806 cell growth in a cell viability assay.

OAW-42 = test: cells; format: functional, cell-based; conditions: Homo sapiens;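 further: growth inhibition of OAW-42 cells, read out with a cell viability assay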
Description: SANGER: Inhibition of human OAW-42 cell growth in a cell viability assay.

MDA-MB-175-VII = test: cells; format: functional, cell-based; conditions: Homo sapiens
Hs-578T = test: cells; format: functional, cell-based; conditions: Homo sapiens
Description: SANGER: Inhibition of human Hs-578-T cell growth in a cell viability assay.

OVCAR-5 = test: cells; format: functional, cell-based; conditions: Homo sapiens;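 further: growth inhibition of human OVCAR-5 cells, read out with a cell viability assay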
Description: SANGER: Inhibition of human OVCAR-5 cell growth in a cell viability assay.

THP-1 = test: cells; format: functional, cell-based, Homo sapiens; conditions: Homo sapiens, THP-1;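 further: growth inhibition of THP-1 cells, read out via a cell viability assay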
Description: SANGER: Inhibition of human THP-1 cell growth in a cell viability assay.

RPMI-6666 = test: cells; format: functional, cell-based, Homo sapiens; conditions: Homo sapiens, RPMI-6666
Description: SANGER: Inhibition of human RPMI-6666 cell growth in a cell viability assay.

IMR-5 = test: cells; format: functional, cell-based, Homo sapiens; conditions: Homo sapiens, IMR-5; read-out: IC50;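 further: growth inhibition of human IMR-5 cells, read out with a cell viability assay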
Description: SANGER: Inhibition of human IMR-5 cell growth in a cell viability assay.

WSU-NHL = test: cells; format: functional, cell-based, Homo sapiens; conditions: Homo sapiens, WSU-NHL;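 further: growth inhibition of human WSU-NHL cells, read out with a cell viability assay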
Description: SANGER: Inhibition of human WSU-NHL cell growth in a cell viability assay.

IM-9 = test: SANGER: Inhibition of human IM-9 cell growth in a cell viability assay.; format: functional, cell-based; conditions: Homo sapiens, IM-9
NCI-H524 = test: cells; format: functional, cell-based, Homo sapiens; conditions: Homo sapiens, NCI-H524;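 further: growth inhibition of human NCI-H524 cells, read out through a cell viability assay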
Description: SANGER: Inhibition of human NCI-H524 cell growth in a cell viability assay.

MC-CAR = test: cells; format: functional, cell-based, Homo sapiens; conditions: Homo sapiens, MC-CAR;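 further: growth inhibition of the human MC-CAR cell line, read out by a cell viability assay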
Description: SANGER: Inhibition of human MC-CAR cell growth in a cell viability assay.

EHEB = test: cells; format: functional, cell-based; conditions: Homo sapiens;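 further: growth inhibition of human EHEB cells, read out with a cell viability assay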
Description: SANGER: Inhibition of human EHEB cell growth in a cell viability assay.

DMS-153 = test: cells; format: functional, cell-based, Homo sapiens; conditions: Homo sapiens, DMS-153
Description: SANGER: Inhibition of human DMS-153 cell growth in a cell viability assay.

MFH-ino = test: cells; format: functional, cell-based, Homo sapiens; conditions: Homo sapiens, MFH-ino;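 further: growth inhibition of human MFH-ino cells, read out by a cell viability assay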
Description: SANGER: Inhibition of human MFH-ino cell growth in a cell viability assay.

D-542MG = test: cells; format: functional, cell-based; conditions: Homo sapiens
Description: SANGER: Inhibition of human D-542MG cell growth in a cell viability assay.

LU-165 = test: cells; format: functional, cell-based, Homo sapiens; conditions: Homo sapiens, LU-165
Description: SANGER: Inhibition of human LU-165 cell growth in a cell viability assay.

CAL-148 = test: cells; format: functional, cell-based, Homo sapiens; conditions: Homo sapiens, CAL-148
Description: SANGER: Inhibition of human CAL-148 cell growth in a cell viability assay.

SCLC-21H = test: cells; format: functional, cell-based, Homo sapiens; conditions: Homo sapiens, SCLC-21H;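 further: growth inhibition of cultured human SCLC-21H cells, read out with a cell viability assay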
Description: SANGER: Inhibition of human SCLC-21H cell growth in a cell viability assay.

NCI-H2171 = test: cells; format: functional, cell-based, Homo sapiens; conditions: Homo sapiens, NCI-H2171;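 further: growth inhibition of human NCI-H2171 cells, read out by a cell viability assay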
Description: SANGER: Inhibition of human NCI-H2171 cell growth in a cell viability assay.

LB373-MEL-D = test: cells; format: functional, cell-based, Homo sapiens; conditions: Homo sapiens, LB373-MEL-D;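 further: growth inhibition of the cell line, read out in a cell viability assay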
Description: SANGER: Inhibition of human LB373-MEL-D cell growth in a cell viability assay.

TUR = test: cells; format: functional, cell-based, Homo sapiens; conditions: Homo sapiens, TUR;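 further: growth inhibition of human TUR cells, read out with a cell viability assay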
Description: SANGER: Inhibition of human TUR cell growth in a cell viability assay.

Measured: IC50

O=C1NC(=O)c2c1c(-c1ccccc1Cl)cc1[nH]c3ccc(O)cc3c21
1210 nM: PANC-03-27
852 nM: MKN-45
1270 nM: U2OS
1930 nM: NCI-H630
> 2000 nM: CP50-MEL-B | RT-112 | MKN-1 | CAL-120 | HCC1395 | NCI-H1651 | BFTC-909 | ASPC1 | CAL-62 | NY | SiHa | NCI-H2170 | MDA-MB-157 | NB12 | S-117 | SW1088 | CAL-54 | NCI-H1793 | G-401 | NCI-H650 | COLO-680N | AN3-CA | IGROV-1 | ChaGo-K-1 | RO82-W-1 | SNU-387 | NCI-H2052 | HCC1937 | SW1463 | NCI-H1993 | DoTc2-4510 | M059J | NCI-H810 | HCC1806

CC1(C)CCC(c2ccc(Cl)cc2)=C(CN2CCN(c3ccc(C(=O)NS(=O)(=O)c4ccc(N[C@H](CCN5CCOCC5)CSc5ccccc5)c(S(=O)(=O)C(F)(F)F)c4)cc3)CC2)C1 [NAVITOCLAX]
1060 nM: NCI-H2170
961 nM: OAW-42
1720 nM: NCI-H2052
1160 nM: CAL-120
> 2000 nM: CP50-MEL-B | MKN-45 | RT-112 | MKN-1 | NCI-H630 | HCC1395 | NCI-H1651 | BFTC-909 | ASPC1 | CAL-62 | NY | SiHa | MDA-MB-157 | S-117 | SW1088 | CAL-54 | NCI-H1793 | MDA-MB-175-VII | G-401 | PANC-03-27 | NCI-H650 | COLO-680N | AN3-CA | IGROV-1 | ChaGo-K-1 | RO82-W-1 | SNU-387 | HCC1937 | SW1463 | NCI-H1993 | U2OS | DoTc2-4510 | M059J | Hs-578T | NCI-H810 | OVCAR-5 | HCC1806
231 nM: NB12

COc1ccc(-c2cc3nccn3c(Nc3ncccc3C(N)=O)n2)cc1OC
7300 nM: MKN-1
6080 nM: IMR-5
2570 nM: TUR
7410 nM: OVCAR-5
3790 nM: EHEB
4150 nM: NCI-H1651
1440 nM: RPMI-6666
5750 nM: G-401
1060 nM: DoTc2-4510
4660 nM: AN3-CA
> 8000 nM: CP50-MEL-B | MKN-45 | RT-112 | THP-1 | CAL-120 | HCC1395 | BFTC-909 | ASPC1 | CAL-62 | NY | IM-9 | SiHa | MDA-MB-157 | NB12 | OAW-42 | S-117 | NCI-H524 | SW1088 | CAL-54 | NCI-H1793 | MDA-MB-175-VII | DMS-153 | NCI-H650 | COLO-680N | MFH-ino | D-542MG | CAL-148 | ChaGo-K-1 | RO82-W-1 | SCLC-21H | NCI-H2171 | NCI-H2052 | HCC1937 | SW1463 | NCI-H1993 | U2OS | LB373-MEL-D | Hs-578T | HCC1806
2900 nM: SNU-387
5350 nM: NCI-H2170
7970 nM: LU-165
2530 nM: IGROV-1
1140 nM: MC-CAR
5560 nM: PANC-03-27
4440 nM: NCI-H810
1380 nM: WSU-NHL
2840 nM: M059J
